Laboratory results published in patent US6756206B2, “Adsorption and removal of endotoxin from physiological fluids using cationic helix peptides” (Commonwealth Biotechnologies, Inc., priority 1998, dated 2004).
Where two headings read alike, the source gives them in different places. No end group written: not given here.

Tests used:
[1] = Neutralization of endotoxin purposely added to plasma or buffer, kinetic chromogenic Limulus amebocyte lysate endotoxin assay; format: biochemical; conditions: for neutralization (binding) of endotoxin, in words: endotoxin added to plasma or aqueous samples; for Percent binding of Endotoxin: plasma, endotoxin 10 ng/mL
Description: The presence of endotoxin may routinely be measured using, for example, a kinetic chromogenic method. The assay involves a complete set of enzyme reactions which are described in detail in the following publications, each of which is hereby incorporated by reference.
In the course of the endotoxin assay, a calibration curve is prepared which is a plot of logarithm of the time of the kinetic endpoint of a chromogenic reaction versus the logarithm of known concentrations of endotoxin.
Thus, if endotoxin is added to aqueous buffer solutions or to plasma the amount of endotoxin present can be assayed by reference to the calibration curve. Similarly, if plasma, plasma fractions, patient samples or any test solution contains an endogenous level of endotoxin, the level can also be determined by reference to the calibration curve.
Endotoxin was purposely added to plasma to a final concentration of 10 ng/mL and increasing concentrations of the compounds Arg Helix #2 (a monomeric cationic helix peptide), Bis Arg Helix #2 (which contains 2 copies of Arg Helix #2), Tris Arg Helix #3 (which contains 3 copies of Arg Helix #3), Tetra Arg Helix #3 (4 copies of Arg Helix #3) or Tris Arg Helix #3 (constrained) (3 copies of Arg Helix #3 constrained by design to present a “binding groove” within the molecule) were added to these same samples (Table 1).

[2] = cited from earlier work

Molecule | neutralization (binding) of endotoxin, in words [1] | Percent binding of Endotoxin ([1]; peptide concentration 0.01 mg/mL) [%] | Percent binding of Endotoxin ([1]; peptide concentration 0.1 mg/mL) [%] | Percent binding of Endotoxin ([1]; peptide concentration 0.5 mg/mL) [%] | Percent binding of Endotoxin ([1]; peptide concentration 1.0 mg/mL) [%] | Survival ([2]; animals treated with cefoxitin and rHBP, compared to controls) | Survival ([2]; mice pretreated well in advance) | Survival ([2]; treated at the time of ligation and puncture, versus control group)
Bis Arg Helix #2: contains 2 copies of Arg Helix #2; SEQ ID NOS.:2 and 3, FIG. 1A (chain 1 ARAARRAARAAARRARAEA; chain 2 AEARARRAAARAARRAARA; also: two copies linked, linkage not given here) | very little neutralization (binding) activity | 0.00 | 24.7 | 51.2 | 63.5 |  |  | 
protamine [reference compound] | ineffective in neutralizing endotoxin |  |  |  |  |  |  | 
rHBP: recombinant heparin binding protein; formerly known as cationic antimicrobial protein or bactericidal/permeability increasing factor (protein, UniProt P20160 27-248, looked up) Azurocidin: IVGGRKARPRQFPFLASIQNQGRHFCGGALIHARFVMTAASCFQSQNPGVSTVVLGAYDLRRRERQSRQTFSISSMSENGYDPQQNLNDLMLLQLDREANLTSSVTILPLPLQNATVEAGTRCQVAGWGSQRSGGRLSRFPRFVNVTVTPEDQCRPNNVCTGVLTRRGGICNGDGGTPLVCEGLAHGVASFSLGPCGRGPDFFTRVALFRDWIDGVLNNPGP |  |  |  |  |  | increased significantly | increased | not significantly different
